Measured values: US20030013638A1, “P27 prevents cellular migration” (priority 2001, published 2003)
One block for each compound: values may come before it.

Columns and labels:
wild type murine SMC = assay: SMC migration assay, modified Boyden chamber, bFGF-induced; format: cell-based, mouse
Method: (§1) Cell Culture: The murine aortic SMCs were obtained from the explant migration experiments described below, and were subcultured in DMEM containing 20% fetal bovine serum (FBS) at 37° C. in a humidified 95% air-5% CO2 atmosphere (Kobayashi et al., 1993). The growth medium was changed every other day until 80% confluence was reached. The cells used for experiments were from passages #3-6. Verification of SMC phenotype was determined by positive fluorescent staining for α-actin and negative staining for Factor VIII antigen. Cell viability was 95% or greater as determined by trypan blue exclusion at the conclusion of each experiment.
SMC migration assay: Migration was measured using a 48 well modified Boyden chamber housing a polycarbonate filter with 8 μm pores as described previously (Bornfeldt et al., 1994; Poon et al., 1996). Each membrane was coated with 0.1 mg/ml of collagen in 0.2 M acetic acid for 24 hours before each assay. For each assay, 50 ng/ml of bFGF in DMEM was loaded in quadruplicate wells in the bottom chamber. BSA (0.2% in DMEM without bFGF) was used as a negative control. […] An equal number of cells (2×10^5/ml) in 50 μl was loaded to the top chamber of each well. After 6 hours, non-migrating cells were scraped from the upper surface of the filter. Cells on the lower surface were fixed with methanol and stained with Giemsa stain (Fisher Scientific, N.Y.) . The number of SMC on the lower surface of the filter was determined by counting four high power (X200) fields of constant area per well. Values are expressed as the percentage of cells migrating in response to bFGF after subtraction of the negative control (DMEM+BSA). Experiments were performed at least twice using quadruplicate wells.

p27 (−/−) SMC = assay: as above; format: cell-based, mouse
Method: as §1
SMC migration assay: Migration was measured using a 48 well modified Boyden chamber housing a polycarbonate filter with 8 μm pores as described previously (Bornfeldt et al., 1994; Poon et al., 1996). Each membrane was coated with 0.1 mg/ml of collagen in 0.2 M acetic acid for 24 hours before each assay. For each assay, 50 ng/ml of bFGF in DMEM was loaded in quadruplicate wells in the bottom chamber. BSA (0.2% in DMEM without bFGF) was used as a negative control. Rapamycin, FK506 or C3 exoenzyme was directly added to the growth medium for either 48 hours (rapamycin and FK506) or 16 hours (C3 exoenzyme) before the cells were trypsinized, and counted with a hemacytometer. An equal number of cells (2×10^5/ml) in 50 μl was loaded to the top chamber of each well. After 6 hours, non-migrating cells were scraped from the upper surface of the filter. Cells on the lower surface were fixed with methanol and stained with Giemsa stain (Fisher Scientific, N.Y.) . The number of SMC on the lower surface of the filter was determined by counting four high power (X200) fields of constant area per well. Values are expressed as the percentage of cells migrating in response to bFGF after subtraction of the negative control (DMEM+BSA). Experiments were performed at least twice using quadruplicate wells.

[1] = system: aortic SMC of wild type C57BL/6 mice; assay: Aortic SMC explant migration after in vivo treatment; parameters: species or system mouse
Method: (§2) Aortic SMC explant migration: Wild type C57BL/6 mice were purchased from Jackson Laboratory (Bar Harbor, Me.). The p27 (+/−) and p27 (−/−) knockout mice were kindly provided by Dr. Andrew Koff of Memorial Sloan-Kettering Cancer Institute (Kiyokawa et al., 1996). […] The control group was treated with vehicle alone (0.2% sodium CMC, polysorbate 0.25%; Sigma, St. Louis, Mo.). At the conclusion of the treatment protocol, the mice were euthanized with 100 mg/kg of pentobarbital, the aortas excised and the adventitia and surrounding connective tissue were removed. The aortas were then opened by a longitudinal cut and the intima, as well as a thin portion of the subjacent media, were removed. The media were divided into 2 mm×2 mm pieces and placed in 6 well tissue culture plates (35 mm, 22.6 mm diameter, Costar, Cambridge, Mass.) containing DMEM with 20% FBS. The culture media was changed every other day. The migration of SMC out of the explant was observed under the microscope daily following explant. The total number of cells explanted was determined for each animal's explants on a daily basis. The results in FIG. 5 are presented as the mean percentage (±SD) of inhibition of migration (by rapamycin or taxol) as compared to control (untreated) for at least 4 animals from each group. The SMC phenotype was confirmed as previously described (Spector et al., 1997).

[2] = system: aortic SMC of p27 (+/−) mice; assay: as above; parameters: species or system mouse; conditions: 4 mg/kg/day for 5 days IP, p<0.05
Method: Aortic SMC explant migration: Wild type C57BL/6 mice were purchased from Jackson Laboratory (Bar Harbor, Me.). The p27 (+/−) and p27 (−/−) knockout mice were kindly provided by Dr. Andrew Koff of Memorial Sloan-Kettering Cancer Institute (Kiyokawa et al., 1996). The mice received one of three different treatment protocols (9 mg/kg/day for 7 days, 4 mg/kg/day for 5 days, or 2 mg/kg/day for 2 days) of rapamycin via intraperitoneal (IP) injection. The control group was treated with vehicle alone (0.2% sodium CMC, polysorbate 0.25%; Sigma, St. Louis, Mo.). At the conclusion of the treatment protocol, the mice were euthanized with 100 mg/kg of pentobarbital, the aortas excised and the adventitia and surrounding connective tissue were removed. The aortas were then opened by a longitudinal cut and the intima, as well as a thin portion of the subjacent media, were removed. The media were divided into 2 mm×2 mm pieces and placed in 6 well tissue culture plates (35 mm, 22.6 mm diameter, Costar, Cambridge, Mass.) containing DMEM with 20% FBS. The culture media was changed every other day. The migration of SMC out of the explant was observed under the microscope daily following explant. The total number of cells explanted was determined for each animal's explants on a daily basis. […]

[3] = system: SMC obtained from wild type and p27 (−/−) animals; assay: Cell viability (trypan blue exclusion) and morphology of SMC; format: cell-based, mouse
Method: as §1

[4] = system: aortic SMC of p27 (−/−) knockout mice; assay: Aortic SMC explant migration after in vivo treatment; parameters: species or system mouse; conditions: 20 mg/kg/day for 7 days
Method: as §2

Structure (SMILES): C=CC[C@@H]1/C=C(\C)C[C@H](C)C[C@H](OC)[C@H]2O[C@@](O)(C(=O)C(=O)N3CCCC[C@H]3C(=O)O[C@H](/C(C)=C/[C@@H]3CC[C@@H](O)[C@H](OC)C3)[C@H](C)[C@@H](O)CC1=O)[C@H](C)C[C@@H]2OC [FK506]
- effect on murine SMC migration (FIG. 1A) (wild type murine SMC; wild type SMC, 48 hours): no effect
- effect on murine SMC migration (FIG. 1B) (p27 (−/−) SMC; p27 (−/−) SMC, 48 hours): no effect

- IC50 (wild type murine SMC; Mus musculus, wild type murine SMC, treatment for 48 hours, read-out: IC50, inhibition of bFGF-induced SMC migration): ~2 nM
- IC50 (p27 (−/−) SMC; Mus musculus, p27 (−/−) cells, treatment for 48 hours, read-out: IC50, inhibition of bFGF-induced SMC migration): ~200 nM
- increased IC50 in p27 (−/−) cells as compared to wild type SMC (p27 (−/−) SMC; p27 (−/−) vs wild type SMC): 100 fold
Structure (SMILES): CO[C@H]1C[C@@H]2CC[C@@H](C)[C@@](O)(O2)C(=O)C(=O)N2CCCC[C@H]2C(=O)O[C@H]([C@H](C)C[C@@H]2CC[C@@H](O)[C@H](OC)C2)CC(=O)[C@H](C)/C=C(\C)[C@@H](O)[C@@H](OC)C(=O)[C@H](C)C[C@H](C)/C=C/C=C/C=C/1C [rapamycin]
- effect on SMC migration of addition immediately prior to incubation (wild type murine SMC; added to upper or lower chamber immediately prior to incubation, genotype not stated): no effect
- inhibition at 0.1 µM (p27 (−/−) SMC; Mus musculus, p27 (−/−) SMC, 100 nM, 48 hours): ~35%
- inhibition of migration (p27 (−/−) SMC; p27 (−/−) SMC, 1 nM to 10 nM, 48 hours): no significant inhibition
- inhibition of explant migration as compared to untreated animals ([1]; wild type, 4 mg/kg/day for 5 days IP, p<0.05): ~85%
- inhibition of explant migration as compared to untreated animals [2]: ~85%
- cell viability, treated vs untreated [3]: no differences

Structure (SMILES): CC(=O)O[C@H]1C(=O)[C@@]2(C)[C@H]([C@H](OC(=O)c3ccccc3)[C@]3(O)C[C@H](OC(=O)[C@H](O)[C@@H](NC(=O)c4ccccc4)c4ccccc4)C(C)=C1C3(C)C)[C@]1(OC(C)=O)CO[C@@H]1C[C@@H]2O [taxol, paclitaxel]
- difference in inhibition of explant migration between wild type and p27 (−/−) animals [4]: No differences
- inhibition of explant migration (FIG. 3C) ([4]; p27 (−/−)): inhibited migration
- inhibition of explant migration (FIG. 3C) ([1]; p27 (+/+), 20 mg/kg/day for 7 days): inhibited migration
